What was measured:
[1] = system: RAW 264.7 macrophage cells; conditions: RAW 264.7 cells, in the presence of 1.0 μM oligomycin; FCCP 0.125-2 μM tested
Description: Cultured cells are first seeded into the wells of an appropriate microplate (also referred to herein as a multi-well plate) for the instrument being used (as described above). • 2. After adherence to the microplate, cells are either allowed to grow as desired, or may be assayed for metabolic potential immediately. • 3. At time of assay, cell culture media is exchanged for a volume of assay media appropriate for the microplate being used to create a cell sample including a plurality of cells disposed in a media. The microplate is allowed to incubate for 1 h at 37° C. in a non-CO2 incubator. • 4. […] To titrate optimal FCCP concentration in an XFe96 instrument, RAW 264.7 macrophages are exposed to varying concentrations of the drug, and the resulting OCR is measured. In this example, cells were first treated with 1.0 μM oligomycin (final concentration in 200 μl assay media), OCR was measured, and then one of the following concentrations of FCCP was added: 0.125, 0.25, 0.5, 1.0, or 2.0 μM (final concentration in 222 μl assay media). […] The metabolic potential of the cell sample may be determined by (i) providing the initial oxygen consumption rate, the initial extracellular acidification rate, the subsequent oxygen consumption rate, and the subsequent extracellular acidification rate to a software program, and (ii) using the software program to calculate the metabolic potential. […]

[2] = system: RAW 264.7 macrophage cells; assay: Metabolic potential (OCR/ECAR, XFp) after co-injection of FCCP and oligomycin, LPS treatment; format: cell-based; conditions: 1 μg/ml LPS, 1 hour; stress 0.5 μM FCCP + 1.0 μM oligomycin
Description: Cells treated with LPS received media containing 1 μg/ml LPS, control cells received assay media.
(§1) Metabolic potential was measured using an XFp Extracellular Flux Analyzer (Seahorse Bioscience) and XFp assay cartridges (Seahorse Bioscience). Briefly, microplates containing LPS-treated and control cells were placed in the XFp Extracellular Flux Analyzer, and initial OCR and ECAR measurements are taken.

C2C12 myotubes = assay: Metabolic potential (OCR/ECAR, XFp) after co-injection of FCCP and oligomycin, etomoxir treatment; format: cell-based; conditions: 40 μM etomoxir, 1 hour; stress 0.5 μM FCCP + 1.0 μM oligomycin
Description: C2C12 myoblast cells were seeded into XFp microplates at a density of 1.2×10^4 cells/well. […] During differentiation, medium was replaced with fresh differentiation medium every other day. […] Metabolic potential was measured using an XFp Extracellular Flux Analyzer (Seahorse Bioscience) and XFp assay cartridges (Seahorse Bioscience). Briefly, microplates containing etomoxir-treated and control myotubes were placed in the XFp Extracellular Flux Analyzer, and initial OCR and ECAR measurements are taken.

C2C12 myoblast cells = assay: Metabolic potential (OCR/ECAR, XFp) after co-injection of FCCP and oligomycin, UK5099 treatment; format: cell-based; conditions: 2 μM UK5099, 1 hour; stress 0.5 μM FCCP + 1.0 μM oligomycin
Description: C2C12 myoblast cells were seeded into XFp microplates at a density of 1.2×10^4 cells/well.
Treated cells received media containing 2 μM UK5099 (a potent inhibitor of the mitochondrial pyruvate carrier), control cells received assay media.
as §1, with “UK5099-treated” for “LPS-treated”

With `N#CC(C#N)=NNc1ccc(OC(F)(F)F)cc1` [FCCP, carbonyl cyanide p-trifluoromethoxyphenylhydrazone] the “FCCP concentration at which maximal OCR is achieved” value [1] was 0.5 µM.

For lipopolysaccharide [LPS], the “aerobic metabolic potential relative to control cells” value [2] was “increased” and the “glycolytic potential relative to control cells” value [2] was “roughly unchanged”.

For `CCOC(=O)[C@@]1(CCCCCCOc2ccc(Cl)cc2)CO1` [etomoxir], the “aerobic metabolic potential compared to control myotubes” value (C2C12 myotubes) was “increased” and the “glycolytic metabolic potential compared to control myotubes” value (C2C12 myotubes) was “slightly decreased”.

For `N#C/C(=C\c1cn(-c2ccccc2)c2ccccc12)C(=O)O` [UK5099], the “aerobic metabolic potential relative to control cells” value (C2C12 myoblast cells) was “decreased” and the “glycolytic metabolic potential relative to control cells” value (C2C12 myoblast cells) was “decreased”.
